Measurements as given in patent publication US6051417A, “Prostate cancer drug screening using hKLK2 enhancer” (Calydon, Inc., priority 1997, dated 2000).
pEC50: −log10 of the molar value. Where two headings read alike, the source gives them in different places.

Assays:
[1] = Metabolism of dihydrotestosterone in CN1013 cell line (Testosterone ELISA); conditions: human, cn1013 cells
CN1013 cells = assay: as above
[2] = tested on: PSE-Luc (PSA enhancer/promoter-luciferase) in LNCaP cells; assay: Transient transfection of LNCaP cells with PSE-Luc, luciferase assay
[3] = tested on: PSE-Luc/LNCaP cell line CN1013; assay: Stably transfected PSE-Luc/LNCaP cell line CN1013 (and subclone CN1013.7), luciferase assay; conditions: for inhibition of luciferase expression after induction with 1 nM R1881: CN1013, all anti-androgen concentrations examined; for concentration, relative to R1881, giving luciferase expression levels similar to R1881 / luciferase expression at physiological concentrations: CN1013, anti-androgen alone
[4] = tested on: hKLK2 promoter/enhancer-luciferase constructs in 293 cells; assay: hKLK2 promoter/enhancer-driven luciferase expression in transfected 293 cells; assay type: cell-based, human; conditions: 1 nM R1881
Protocol: (§1) Knowing that the PSA enhancer is tissue specific, a series of experiments was conducted to determine if the same was true for the hKLK2 enhancer. In the first experiment, LNCaP cells (a PSA-producing prostate cancer cell line) and 293s (a human embryonic kidney cell line) were transfected with CN299 or CN322 (Example 2). Half of the dishes were supplemented with 1 nM R1881, and the cells were harvested 48 hours post transfection. […] The results of this experiment again support the conclusion that the hKLK2 enhancer is androgen inducible.

[5] = tested on: CMV-Luc/LNCaP stable cell line; assay: CMV-Luc/LNCaP stable cell line luciferase expression (control); assay type: cell-based, human; conditions: 10-1000 nM androgen
Protocol: CMV-Luc/LNCaP Cell Line. Transfections of the control plasmid, CMV-Luc, into LNCaP cells were done in the same fashion as for PSE-Luc. The stable cell line CN1006, containing CMV-Luc, was obtained by selection with G418. The luciferase assay was performed as described above.
Luciferase Expression of CMV-Luc/LNCaP Stable Cell Line. LNCaP clones containing the CMV-Luc gene were screened for stable expression of the luciferase gene (i.e. selection of stable cell line). A 3-4 fold increase in expression levels over the uninduced cells was observed upon the addition of 10-1000 nM androgen. A similar androgen stimulation of CMV-Luc expression in transient transfection of LNCaP cells was reported by Pang et al., Hum. Gene Ther. (1995) 6:1417-1426. The slight increase in expression levels was attributed to cell proliferation resulting from increased R1881 addition.

[6] = tested on: CN322 or CN355 in OVCAR, 293, PC3 cells; assay: hKLK2 enhancer/promoter luciferase activity in other cell lines (OVCAR, 293, PC3); assay type: cell-based; conditions: Homo sapiens, 48 h, read-out: fold induction of activity
Protocol: FIG. 7 is a bar graph depicting the activity of the hKLK2 enhancer/promoter in various cell lines. Various cell lines were transfected with either CN322 or CN355, and, after an overnight incubation in complete medium, were incubated in the presence or absence of R1881. CN355 contains a 3.8 kb fragment from approximately -6200 to approximately -2400 of the hKLK2 enhancer fused to the minimal hKLK2 promoter to control luciferase expression. The cell lines used were: OVCAR, human ovarian adenocarcinoma; 293, transformed human primary embryonal kidney; PC3, human grade IV prostate adenocarcinoma; LNCaP, metastatic human prostate adenocarcinoma.
(§2) This 3.8 kbp fragment was fused upstream of the minimal hKLK2 promoter and then cloned upstream of the luc gene, creating CN355. A variety of cell lines were transfected with CN322 or CN355 by incubating them with the complexes in complete media overnight. The complexes were then aspirated and the media was replaced with stripped serum media. The media in half of the plates was supplemented with 1 nM R1881. The cells were then harvested 48 hours after the removal of the DNA-lipid complexes and tested for luciferase activity.

[7] = tested on: hKLK2 promoter/enhancer-luciferase constructs in LNCaP cells; assay: hKLK2 promoter/enhancer-driven luciferase expression in transfected LNCaP cells; assay type: cell-based, human; conditions: for fold induction at 0.001 µM: Homo sapiens, LNCaP, 48 h
Text: To assess the function of the DNA segment containing the enhancer, a series of constructs was generated by inserting the hKLK2 5'-flanking region, shown schematically in FIG. 2, upstream of the luciferase reporter gene. The activity of these fragments was compared with that of CN299, a plasmid with the full hKLK2 promoter (-605 to +33) driving the expression of firefly luciferase. The constructs are as follows:
To determine the effect of the 12 kbp 5'-flanking sequence on promoter activity, two constructs were created: CN299 and CN322. The hKLK2 promoter was cloned upstream of the luc gene to create CN299, as described in Example 2. The entire 12 kbp sequence upstream of the hKLK2 gene (including the promoter) was cloned upstream of the luc gene to create CN322, as described in Example 2. Each construct was then used to transfect LNCaP cells. The media in half of the dishes was supplemented with 0.5 nM R1881. The cells were harvested 48 hours post transfection and the luciferase activity was measured. […] At both R1881 concentrations tested, CN322 had higher activity than CN299.
To determine if the hKLK2 5'-flanking sequence did indeed contain an androgen responsive element, two experiments were conducted. In the first experiment, LNCaP cells were transfected with CN322, the transformants were incubated in medium containing various concentrations of R1881, and 48 hours after transfection, luciferase activity was measured. […] Peak induction of activity was estimated at 1 nM R1881, about 9 fold over the 0 nM activity.
as §1, §2

With `C[C@]12CCC(=O)C[C@@H]1CC[C@@H]1[C@@H]2CC[C@]2(C)[C@@H](O)CC[C@@H]12` [DHT, dihydrotestosterone] the half-life at 0.01 µM [1] was roughly 66 min, the “time within which metabolism occurs after addition to CN1013 cells” value (CN1013 cells) was 1 to 4 h and the “concentration when unexposed to CN1013 cells” value (CN1013 cells; medium without cells) was “remained constant”. The “amount required relative to R1881 to obtain comparable luciferase activity” value [2] was “approximately 100 fold”, the luciferase expression ([2]; DHT 100 and 200 nM) was 2,500-3,000 RLUs and the “amounts required for comparable expression relative to R1881” value ([3]; CN1013) was 100-200 fold.

In the case of `C[C@]1(O)CC[C@H]2[C@@H]3CCC4=CC(=O)CCC4=C3C=C[C@@]21C` [R1881, methyl trienolone], the “change of luciferase activity” value ([4]; CN299, 293 cells) was “reduction of activity”, the “change of luciferase activity” value ([4]; CN322, 293 cells) was “reduction of luciferase activity” and the “fold increase in expression levels over uninduced cells” value [5] was 3-4 fold. For the same compound, the “concentration giving peak levels of luciferase expression” value [2] was 1 nM, the luciferase expression ([2]; 1-50 nM R1881, 48 hours) was 3,000-3,500 RLUs and the fold induction at 0.001 µM [6] was 1 to 2. The “concentration giving peak values of induction” value ([3]; CN1013) was 0.1 to 1 nM, the pEC50 ([3]; Homo sapiens, LNCaP, read-out: EC50 of luciferase induction) was 10.12 and the “fold induction of luciferase” value ([3]; subclone CN1013.7) was 100-200 fold. For the same compound, the “response of CN322 luciferase activity to concentration” value ([7]; CN322, LNCaP, 0-10 nM R1881) was “concentration dependent manner”, the “fold induction of luciferase activity” value ([7]; CN379, same assay methods, R1881) was “approximately 54 fold” and the fold induction at 0.001 µM ([7]; read-out: fold induction of activity vs 0 nM R1881, CN299, LNCaP, 1 nM R1881, 48 hours) was 2 to 3. For the same compound, the fold induction at 0.001 µM ([7]; read-out: fold induction of activity vs 0 nM R1881, CN322, LNCaP, 1 nM R1881, 48 hours (Example 5 first experiment, FIG. 6)) was 17, the fold induction at 0.001 µM ([7]; read-out: fold induction of activity, CN322, LNCaP, 1 nM R1881, stripped serum media, 48 hours (FIG. 7)) was roughly 100 and the fold induction at 0.001 µM ([7]; read-out: fold induction of activity, CN355, LNCaP, 1 nM R1881, stripped serum media, 48 hours (FIG. 7)) was 35. The fold induction at 0.001 µM ([7]; read-out: peak induction of luciferase activity over the 0 nM activity, CN322, LNCaP, 1 nM R1881, 48 hours after transfection) was roughly 9.

For `CC(=O)O[C@]1(C(C)=O)CC[C@H]2[C@@H]3C=C(Cl)C4=CC(=O)[C@@H]5C[C@@H]5[C@]4(C)[C@H]3CC[C@@]21C` [cyproterone acetate], the “inhibition of luciferase expression after induction with 1 nM R1881” value [3] was “neither inhibition nor induction”, the “concentration, relative to R1881, giving luciferase expression levels similar to R1881” value [3] was 100-1,000 fold and the “luciferase expression at physiological concentrations” value [3] was “zero or minimal expression”.

With `CC(C)(O)C(=O)Nc1ccc([N+](=O)[O-])c(C(F)(F)F)c1` [hydroxyflutamide] the “inhibition of luciferase expression after induction with 1 nM R1881” value [3] was “neither inhibition nor induction”, the “concentration, relative to R1881, giving luciferase expression levels similar to R1881” value [3] was 100-1,000 fold and the “luciferase expression at physiological concentrations” value [3] was “zero or minimal expression”.

For `CC1=C(/C=C/C(C)=C/C=C/C(C)=C/C(=O)O)C(C)(C)CCC1` [retinoic acid], the “induction or inhibition of CN1013 luciferase” value ([3]; CN1013, non-steroidal ligand unrelated to androgen receptor) was “did not result in either induction or inhibition”.
